Experimental data reported in a melting point compilation (Tetko et al.; mined from patent text by program, amines drawn as free bases though some values may be those of a salt).

First: COC(=O)c1ccc(N2C(=O)C(O)=C(C(=O)c3ccc(C)cc3)C2c2ccc(C(C)C)cc2)nc1 (configuration not stated)
Second: COC(=O)c1ccc(C(O)C#Cc2cc(-c3cccs3)c(OC)cc2OC)cc1 (configuration not stated)
The melting point of the first is higher: 264 to 266 °C for the first, 128 to 130 °C for the second.

First: CC(=C1SC(=O)NC1=O)c1ccc(OCCOc2c(-c3cc(F)ccc3C)n(C)c3ccccc3c2=O)cc1
Second: Cc1ccc(C)n1-c1ccc2ccc3c([nH]c(=O)c(=O)n3CC(=O)NCc3ccccc3)c2c1
The melting point of the first is lower: 192 to 196 °C for the first, over 290 °C for the second.

First: Cc1sc(C)c2c1CCC=C2c1cn(C(c2ccccc2)(c2ccccc2)c2ccccc2)cn1
Second: N=C(c1ccccc1)C1CCN1C(c1ccccc1)c1ccccc1 (configuration not stated)
The melting point of the first is higher: 205 to 207 °C for the first, 124 to 126 °C for the second.

Compared with `COc1ccccc1N1CCN(CC(O)COc2ccc(CC(C)=O)cc2)CC1` (configuration not stated), `CCOc1ccc(CC(=O)OCc2ccc(C#N)cc2)cc1` is higher in melting point: 42 to 43 °C for the first, 59 °C for the second.

Compared with `CC(C)[Si](C#Cc1ccc2c(c1)c1cccc3c1c2c1cccc2c4cc(C#C[Si](C(C)C)(C(C)C)C(C)C)ccc4c3c21)(C(C)C)C(C)C`, `Cc1cccc(-c2[nH]c(CC(C)C)nc2-c2cccc(-c3ccc(C(=O)NC4CCOCC4)cc3)c2)n1` is lower in melting point: over 300 °C for the first, 126 to 129 °C for the second.

First: Cc1ccccc1C(=O)N1CCC(=NO)c2ccc(Cl)cc21
Second: CCN(CC)CC(=O)N1CCn2c(c(-c3ccccc3)c3cc(Cl)ccc32)C1
The melting point of the first is higher: 166 to 168 °C for the first, 117 to 119 °C for the second.

First: COc1ccc(N2CCc3c(C)nc4ccccc4c32)c(C)c1
Second: COc1ccc(-c2nnc(C)n2-c2ccccc2)cc1
The melting point of the first is lower: 115 to 117 °C for the first, 140 to 141 °C for the second.

First: CCOC(=O)/C=C/c1cn(-c2ccc(C(F)(F)F)cn2)nc1C(C)C
Second: CCCc1nn(-c2ccc(C(F)(F)F)cn2)cc1CCCOc1c(CC(=O)O)cnn1C
The melting point of the first is lower: 112 to 113 °C for the first, 136 to 138 °C for the second.

First: CCc1[nH]nc2c1C(=O)c1c(NC(N)=O)cccc1-2
Second: CC1(O)c2ccccc2-c2[nH]nc(-c3ccccc3)c21 (configuration not stated)
The melting point of the first is higher: over 250 °C for the first, 154 to 155 °C for the second.

Compared with `CN(C)c1ccc(Cn2nnc(-c3ccc(OC(=O)C(C)(C)C)c(N(C)C)c3)n2)cc1`, `CCN(CC)C(=O)c1c(OC)ccc2cc(-c3ccc(OC)cc3)ccc12` is higher in melting point: 73 to 74 °C for the first, 118 to 120 °C for the second.

Compared with `Cc1ccc(C(F)(F)C(F)(F)c2ccc(Br)cc2)cc1`, `COC(=O)c1ccc(-c2nc(-c3cccc(OC(F)(F)F)c3)cs2)cc1` is higher in melting point: 104 to 106 °C for the first, 132 to 134 °C for the second.

First: CC(C)(O)c1cnn2c(-c3ccc(F)c(-c4ccccc4C#N)c3)cnc2n1
Second: N#Cc1cc([N+](=O)[O-])ccc1-c1ccccc1
The melting point of the first is higher: 187 °C for the first, 111 to 115 °C for the second.

First: O=C(O)CCC(=O)c1ccc(NC(=O)C2CC2)cc1
Second: O=C(c1ccc(F)cc1)C1CCN(CCn2c(=O)[nH]c3ncccc3c2=O)CC1
The melting point of the first is higher: 229 to 230 °C for the first, 60 °C for the second.

First: CCOc1nc2c(cnn2CC)nc1C(=O)O
Second: CCOC(=O)c1nc2ccccc2nc1C
The melting point of the first is higher: 128 to 130 °C for the first, 74 to 75 °C for the second.

First: O=C(OCC1OC(n2cc(F)c(=O)[nH]c2=O)C(OC(=O)c2ccccc2)C1OC(=O)c1ccccc1)c1ccccc1 (configuration not stated)
Second: C[C@@]1(F)[C@H](OC(=O)c2ccccc2)[C@@H](COC(=O)c2ccccc2)O[C@H]1n1cnc2c(Cl)nc(N)nc21
The melting point of the first is higher: 208 to 209 °C for the first, 160 to 162 °C for the second.

First: O=Cc1c2ccccc2cc2oc3ccccc3c12
Second: C(=Nc1c2c(nc3ccccc13)CCCC2)c1cccc2ccccc12
The melting point of the first is lower: 128 to 132 °C for the first, 229 to 231 °C for the second.

First: Cc1ccc(-c2cc(Br)c3[nH]c(=O)ccc3c2)c(C)n1
Second: CSc1nc2ccc(CCc3nc4cc(C)ccn4c3C)cc2o1
The melting point of the first is higher: 212 to 215 °C for the first, 106 to 107 °C for the second.

Compared with `O=C1N(Cc2ncccc2C(F)(F)F)c2cccnc2C12COc1cc3c(cc12)OCCO3` (configuration not stated), `Cc1ccc(CNC(=S)N2CCc3c([nH]c4ccccc34)C2c2ccc3c(c2)OCO3)cc1C` (configuration not stated) is lower in melting point: over 250 °C for the first, 138 to 142 °C for the second.

Compared with `CCOc1ccc(Nc2ncc(C(=O)O)c(=O)[nH]2)cc1OCC`, `COc1ccc2[nH]c3cc(C(=O)O)c4c(c3c2c1)C(=O)NC4=O` is higher in melting point: 243 to 245 °C for the first, over 300 °C for the second.

First: O=C(C=Cc1ccc(C(F)(F)F)cc1)N1CCC(O)CC1
Second: Cn1c2cc(C(F)(F)F)ccc2c2oc(C(=O)Cl)cc21
The melting point of the first is lower: 124 to 135 °C for the first, 155 to 156 °C for the second.

First: O=C(NC(=NCCCc1c[nH]cn1)NCCSCc1csc(N=C2NCCCN2)n1)c1ccccc1
Second: CC1=NC(=S)N=C1CCCCNC(=O)c1ccccc1
The melting point of the first is lower: 175 to 176 °C for the first, 180 to 184 °C for the second.

First: COc1ccc(C(Cl)Sc2ccc(Cl)cc2)cc1 (configuration not stated)
Second: CCN(CCCOc1ccc(C(=O)O)cc1)c1ccc(Cl)cc1
The melting point of the first is lower: 76 to 77 °C for the first, 146 to 149 °C for the second.

First: COc1cc2c(cc1OCc1ccccc1)CCN(C(=O)c1ccc(C#N)cc1)C2=O
Second: Cc1cccc(SC2=C(O)CC(CCc3ccccc3)(c3ccccc3)OC2=O)c1 (configuration not stated)
The melting point of the first is higher: 158 to 159 °C for the first, 68 to 70 °C for the second.

First: CN(C)N=Cc1cc(-n2c(=O)cc(C(F)(F)F)n(C)c2=O)ccc1Cl
Second: CCN=C1NC(=O)C(OC)(c2nsc3ccc(-n4c(=O)cc(C(F)(F)F)n(C)c4=O)cc23)N1 (configuration not stated)
The melting point of the first is lower: 170 to 171 °C for the first, 205 °C for the second.

First: O=C(O)Cc1c(-c2ccccc2)nn(C2CCCCC2)c1-c1ccccc1
Second: O=C(O)C(O)=CC(=O)c1c(Cc2ccccc2)[nH]c2ccccc12
The melting point of the first is higher: 229 to 231 °C for the first, 165 to 167 °C for the second.

First: COc1ccc2c(c1)CCC1=C2CCC2(CC(C)C)C(=O)CCC12 (configuration not stated)
Second: CC12CCCc3cc(N(CC4CC4)c4ccc(C(=O)O)cc4)cc(c31)CCC2
The melting point of the first is lower: 117 to 119 °C for the first, 234 to 235 °C for the second.

Compared with `CCCCCC[C@H](C)Oc1ccc(-c2ccc(OC(=O)c3ccccc3)cc2)cc1`, `CCCCOCCOc1ccc(-c2ccc3c(c2)C=C(C(=O)Nc2ccc(SCc4nncn4CC(C)C)cc2)CCN3CCC)cc1` is higher in melting point: 84 °C for the first, 130 to 132 °C for the second.

First: CNc1ccccc1C(=O)CCl
Second: CC(=O)NC1=NN(c2ccccc2)CC1C (configuration not stated)
The melting point of the first is lower: 65 to 68 °C for the first, 149 to 150 °C for the second.

First: CCn1cc(C(=O)O)c(=O)c2cc(F)c(N3CCN(C)C(c4cccs4)C3)cc21 (configuration not stated)
Second: Cc1ccc2c(c1)c1c(n2C)CC(C(=O)O)CC1 (configuration not stated)
The melting point of the first is higher: 238 to 240 °C for the first, 84 to 85 °C for the second.

First: CCc1nn2c(-c3ccc(Cl)cc3Cl)nc(C)nc2c1C(CC)CC
Second: CCN(CC)C(=O)Cc1c(-c2ccc(OC)cc2)nn2c(C)cc(C)nc12
The melting point of the first is lower: 91 to 93 °C for the first, 120 to 124 °C for the second.

First: CCCn1c(=O)n(Cc2ccccc2)c(=O)c2c(Cl)cc(Cl)cc21
Second: Cc1ccc2c(c1)OC(CCO)C(=O)N2Cc1cccc(Cl)c1 (configuration not stated)
The melting point of the first is higher: 90 to 93 °C for the first, 72 to 74 °C for the second.

Compared with `COc1ncc(-c2ccc3nnn(Cc4ccc5ncccc5c4)c3n2)cn1`, `COc1ccc(-n2cnc3ccc(-c4nnc(SCc5cccc(F)c5)o4)cc32)cc1` is lower in melting point: 201 to 203 °C for the first, 155 to 156 °C for the second.

Compared with `CP1(=O)OCc2ccccc21` (configuration not stated), `CC(=O)N1c2ccccc2[C@H](Nc2ccccc2C(=O)O)C[C@@H]1C` (relative stereo) is higher in melting point: 70 to 72 °C for the first, 122 to 123 °C for the second.

First: CC(C(=O)O)c1ccc(C2=CCCCC2)cc1 (configuration not stated)
Second: Cc1nc(-c2ccc(N3CCOCC3)c([N+](=O)[O-])c2)sc1C(=O)O
The melting point of the first is lower: 101 to 102 °C for the first, 218 to 220 °C for the second.

Compared with `COc1ccc(-c2nc(CNC(=O)c3ccc4n3Cc3ccccc3N(C(=O)c3ccc(-c5ccccc5C)c(C)c3)C4)no2)cc1`, `O=C(O)CCc1cn(Cc2ccc(OCc3ccoc3)cc2)cc1-c1ccccc1` is lower in melting point: 133 to 135 °C for the first, 110 to 111 °C for the second.

First: CS(=O)(=O)c1ccc(-c2cc(Br)c3cnc(Nc4ccc(N5CCOCC5)cc4)nn23)cc1
Second: CS(=O)(=O)c1ccc(-c2cc(=O)n(Cc3ccc(F)cc3)nc2-c2ccc(F)cc2)cc1
The melting point of the first is higher: 242 to 244 °C for the first, 150 to 151 °C for the second.

First: CC(CC1CCCCC1)N(C)C(=O)COCC(=O)O (configuration not stated)
Second: CC(=O)SCCC(=O)N1CCC=C1C(=O)OC(C)(C)C
The melting point of the first is higher: 90 to 91 °C for the first, 59 to 62 °C for the second.

First: CCOC(=O)C1=C(C)NC(C)=C(C(=O)OCC=CC=Cc2ccccc2)C1c1cccc([N+](=O)[O-])c1 (configuration not stated)
Second: CC(CCc1cccc(OCCC(NC(=O)OCc2ccccc2)C(=O)O)c1)=NNC=NN (configuration not stated)
The melting point of the first is higher: 143 to 147 °C for the first, 95 to 100 °C for the second.

First: CCc1cc2c(NCc3ccccc3)ncnc2s1
Second: CCOc1cc(COc2nn(Cc3ccccc3)cc2CO)ccc1OCc1nc(-c2ccco2)oc1C
The melting point of the first is lower: 128 to 131 °C for the first, 137 to 138 °C for the second.

First: O=C1c2ccccc2C(=O)N1Cc1cn2ccccc2n1
Second: COc1cc(Nc2nccc(-c3ccc(N4CCN(CCCN5C(=O)c6ccccc6C5=O)CC4)nc3)n2)cc(OC)c1OC
The melting point of the first is higher: 230 to 232 °C for the first, 105 to 106 °C for the second.

Compared with `C=CCNC(=S)Cc1ccccn1`, `CC(Cc1c[nH]c2ccccc12)(NC(=O)OC(C)(C)C(Cl)(Cl)Cl)C(=O)NCCc1ccccn1` (configuration not stated) is higher in melting point: 67 to 68 °C for the first, 130 to 133 °C for the second.

First: CCCCCC(O)C=CC1C(O)CC(=O)C1CCCCCCC(=O)Oc1ccc(-c2cc(=S)ss2)cc1 (configuration not stated)
Second: COc1cccc(-c2cc(Cl)cc3c2OC(C(F)(F)F)C(C(=O)O)=C3)c1 (configuration not stated)
The melting point of the first is lower: 101 to 105 °C for the first, 173 to 177 °C for the second.

First: CC(=NO)c1ccnc(N(C)C)c1
Second: O/N=C\c1cccc(Cl)c1
The melting point of the first is higher: 145 to 148 °C for the first, 64 to 66 °C for the second.

First: COC1(c2cc(F)cc(Sc3ccc(C(C)=O)cn3)c2)CCOCC1
Second: COc1ccc2sc(C(N)=O)c(SCCN3CCOCC3)c2c1
The melting point of the first is lower: 73 to 74 °C for the first, 158 to 160 °C for the second.

Compared with `CC(=S)NC[C@H]1CN(c2ccc(N3CCOCC3)c(F)c2)C(=O)O1`, `Cc1nc2ccc3c(c2o1)C(CCNC(=O)C(F)(F)F)CC3` (configuration not stated) is lower in melting point: 158 °C for the first, 104 to 106 °C for the second.

First: N#Cc1cccc(NC(=O)n2ccnc2)c1
Second: Cc1ccc2c(S(C)(=O)=O)cn(CC3=NCCN3)c2c1
The melting point of the first is lower: 174 to 176 °C for the first, over 300 °C for the second.

First: FN(F)CC1(CN(F)F)COC1
Second: CCOC(=O)C(=CN1c2ccc(F)c(F)c2OCC1COC)C(=O)OCC (configuration not stated)
The melting point of the first is lower: 43.5 to 44.5 °C for the first, 81 °C for the second.

`CC(C)c1cccc2c1O[C@@H](C(C)C)C(=S)N2CC(=O)O` and `CCn1nnnc1SCc1c(S(C)(=O)=O)ccc(C(=O)OC)c1Cl` fall in the same range of melting point: 109 to 110 °C for the first, 109 to 110 °C for the second.

Work on `O=S1(=O)c2cccc3cccc(c23)N1CCCN1CC=C(c2c[nH]c3ccc(F)cc23)CC1` yielded a melting point of 224 °C.
